From patent US12534762B2, “Treating atopic dermatitis by targeting the WNT pathway” (Children's Medical Center Corporation, priority 2018, dated 2026)
“Also recorded” adds a separate entry of the source. Peptide text beside a SMILES is read from it. * marks the point of attachment. Cbz = O=C(OCc1ccccc1)*

Assays:
[1] = system: FZD5; assay: Immunoblot of FZD5 (immature and mature forms) with lysosome/proteasome inhibitors; format: cell-based, human; conditions: HEK293T cells; for TMEM79-induced degradation of immature FZD5: TMEM79 overexpressed; for levels of immature and mature forms of FZD5: absence or presence of TMEM79
Method: Cell culture, immunofluorescence, RNA interference and dual luciferase assay. HEK293T cells (ATCC #CRL-11268) and its derivatives were maintained in DMEM supplemented with 10% FBS, penicillin, and streptomycin. ZRKO (ZNRF3 and RNF43 double knockout) cell line was a gift from F. Cong. The FZD null cell line (Fz1-10 knockout) was a gift from B. Vanhollebeke. For immunofluorescence, HEK293T cells were grown on poly-L-lysine-coated glass coverslips. Cells were transfected with Snap-FZD5 and after 24 hours washed with PBS and fixed with 4% paraformaldehyde for 10 min at room temperature. The cells were labeled with 1 μM SNAP-Surface® 488 (BioLabs) for 15 min at room temperature. To visualize endogenous TMEM79, PDI, TGN46 and EEA1, cells were permeabilized with 0.2% Triton X-100 in PBS for 5 min, blocked with 10% normal goat serum and then incubated with respective antibodies for 1 hour at room temperature followed by incubation with secondary antibodies (Alexa Fluor 594 goat anti-rabbit immunoglobulin and Alexa Fluor 488 goat anti-mouse immunoglobulin, Invitrogen). Cells were mounted in Prolong Diamond Antifade Mountant with DAPI (Thermofisher Scientific) and imaged using a Zeiss LSM700 confocal microscope. siRNA transfection was done using Lipofectamine RNAiMAX (Thermofisher Scientific, #13778075). Duplex siRNAs targeting TMEM79 and ZNRF3 were purchased from Sigma. The sequences are as follows: TMEM79-1, 5-[…]dTdT-3 (SEQ ID NO: 19), TMEM79-2, 5-CCAUGAGUUCCCGCCUGAUdTdT-3 (SEQ ID NO: 20). ZNRF3, 5-[…]dTdT-3 (SEQ ID NO: 21). For Top-Flash reporter assay, cells were transduced sequentially with Supertopflash (7TFP, Addgene) and EF1α-Renilla lentiviruses. Cells were plated in 24 well plates and transfected the following day in triplicate using FuGENE HD (Promega, #E2312). Dual luciferase reporter assays were performed using Dual-Luciferase® Reporter Assay System (Promega, #E1960) according to manufacturer's instruction. Representative results are shown from one of three (or more) independent experiments. Immunoblotting, cell surface protein labeling and immunoprecipitation. Total cell lysates in NP40 lysis buffer (50 mM Tris, pH 7.5, 150 mM NaCl, 1 mM EDTA, 1% NP40, 10% glycerol, 10 mM NaF, and protease inhibitor cocktail, pH=7.4) were prepared by gentle rotating at 4° C., followed by centrifugation at top speed for 10 min at 4° C. Samples were run on a SDS-PAGE and transferred to Immobilon-P membrane. To isolate the cytoplasmic fraction of β-catenin, cells were incubated with 0.015% digitonin (in PBS supplemented protease inhibitor cocktail) by gentle rotating at 4° C. for 10 min. Indirect immunochemistry using a secondary antibody conjugated with horseradish peroxidase was visualized using ECL reagents on LAS-4000 imager (FujiFilm). Cell surface proteins were biotinylated using EZ-LinkTMSulfo-NHS—SS-Biotin (Thermo Fisher Scientific) according to manufacturer's protocol. Biotinylated proteins were enriched by Pierce® Streptavidin agarose resins. For immunoprecipitation, transfected HEK293T cells were lysed in NP40 lysis buffer. Cell lysates were incubated with antibody conjugated Agarose beads (Pierce™ Anti-c-Myc Agarose, #20168; Pierce™ Anti-HA Agarose, #26181; Anti-Flag M2 affinity gel, Sigma, A2220; Anti-V5 Agarose Affinity Gel, Sigma, A7345) at 4° C. over night. Beads were washed with lysis buffer 5 times and proteins were eluted in 2× sample buffer.

[2] = system: ma/ma mice; assay: Topical LGK974 cream on Tmem79 ma/ma mice, AD phenotypes; format: in vivo, mouse; conditions: topical cream twice daily, dose to be determined empirically
Description: PORCUPINE (PORCN) is an ER acyl-transferase specifically required for biogenesis and secretion of all WNT proteins. A diverse group of small molecules, referred to as IWP2, LGK974, and C59, each binds to and inhibits PORCN, thereby blocking WNT production. LGK974 and C59 are in phase I clinical trials for cancers that rely on autocrine or local WNT production (Proffitt, K. D., et al., Cancer Res, 2013, 73 (2): p. 502-7; Jiang, X., et al., Proc Natl Acad Sci USA, 2013. 110 (31): p. 12649-54). […] 111 (6): p. 2325-30; Apelian, H. M. C., NJ), Coffin-beach, David (Kendall Park, NJ), Huq, Abu S. (Plainsboro, NJ), Pharmaceutical composition of florfenicol, in U.S. Pat. No. 5,082,862, S. Corporation, January 1992; Malook, S. U. N., GB5), Boon, Peter F. G. (Horsham, GB2), Morgan, James P. (Navan, IE), Method of reducing the swelling or pain associated with antibiotics compositions, in U.S. Pat. No. 4,772,460, L. Bimeda Research and Development, September 1988.). […]
ma ma mice in C57BL/6 have been used as a reliable model for human AD and will be housed under the SPF (specific pathogen-free) conditions at BCH, and analyzed at 2, 4, and 8 weeks for skin phenotypes as described (Sasaki, T., et al., J Allergy Clin Immunol, 132 (5): p. 1111-1120 e4, 2013; Saunders, S. P., et al., J Allergy Clin Immunol, 132 (5): p. 1121-9, 2013). […]

[3] = system: β-catenin; assay: Immunoblot of cytosolic β-catenin after siRNA depletion of TMEM79 or ZNRF3; format: cell-based, human; conditions: HEK293T cells
Method: (§1) Cell culture, immunofluorescence, RNA interference and dual luciferase assay. HEK293T cells (ATCC #CRL-11268) and its derivatives were maintained in DMEM supplemented with 10% FBS, penicillin, and streptomycin. ZRKO (ZNRF3 and RNF43 double knockout) cell line was a gift from F. Cong. The FZD null cell line (Fz1-10 knockout) was a gift from B. Vanhollebeke. For immunofluorescence, HEK293T cells were grown on poly-L-lysine-coated glass coverslips. Cells were transfected with Snap-FZD5 and after 24 hours washed with PBS and fixed with 4% paraformaldehyde for 10 min at room temperature. The cells were labeled with 1 μM SNAP-Surface® 488 (BioLabs) for 15 min at room temperature. To visualize endogenous TMEM79, PDI, TGN46 and EEA1, cells were permeabilized with 0.2% Triton X-100 in PBS for 5 min, blocked with 10% normal goat serum and then incubated with respective antibodies for 1 hour at room temperature followed by incubation with secondary antibodies (Alexa Fluor 594 goat anti-rabbit immunoglobulin and Alexa Fluor 488 goat anti-mouse immunoglobulin, Invitrogen). Cells were mounted in Prolong Diamond Antifade Mountant with DAPI (Thermofisher Scientific) and imaged using a Zeiss LSM700 confocal microscope. siRNA transfection was done using Lipofectamine RNAiMAX (Thermofisher Scientific, #13778075). Duplex siRNAs targeting TMEM79 and ZNRF3 were purchased from Sigma. […]

[4] = system: phosphorylated LRP6 and phosphorylated DVL; assay: Immunoblot of phosphorylated LRP6 and DVL2 in T79KO and ZRKO cells; format: cell-based, human
Method: as §1

[5] = system: Wnt/β-catenin signaling; assay: Top-Flash dual luciferase reporter assay; format: cell-based, human; conditions: HEK293T cells
Method: as §1

`CO/C1=C\C(C)=C\[C@@H](C)[C@@H](O)[C@@H](C)C/C(C)=C/C=C/[C@H](OC)[C@@H]([C@@H](C)[C@@H](O)[C@H](C)[C@@]2(O)C[C@@H](O)[C@H](C)[C@@H](C(C)C)O2)OC1=O` [Bafilomycin A1] was tested, and the “TMEM79-induced lysosomal degradation of FZD5” value [1] was “prevented”, the “TMEM79-induced degradation of immature FZD5” value [1] was “inhibited” and the “TMEM79-induced degradation of immature FZD5” value ([1]; listed as Baf A1) was “blocked”. For the same compound, the “levels of immature and mature forms of FZD5” value (from here on “levels … of FZD5”) [1] was “elevated levels” and the “levels … of FZD5” value ([1]; listed as BAF A1) was “increased”.

`CC(C)C[C@@H](C=O)NC(=O)[C@H](CC(C)C)NC(=O)[C@H](CC(C)C)NC(=O)OCc1ccccc1` [MG132] (Cbz-Leu-Leu-Leu-aldehyde) was tested, and the “levels … of FZD5” value [1] was “did not affect”.

In the case of `Cc1cc(-c2ncc(CC(=O)Nc3ccc(-c4cnccn4)cn3)cc2C)ccn1` [LG974], the “AD phenotypes of ma mice” value [2] is reported as “ameliorated”.

For `Cc1ccc2nc(NC(=O)CSc3nc4c(c(=O)n3-c3ccccc3)SCC4)sc2c1` [IWP-2], the “elevated levels of β-catenin protein caused by depletion of TMEM79 or ZNRF3” value [3] was “prevented; also recorded: suppressed”, the “elevated levels of phosphorylated LRP6 and phosphorylated DVL” value [4] was “inhibited; also recorded: suppressed” and the “TOP-Flash reporter induction by USP8C” value ([5]; USP8C transfected) was “abolished; also recorded: inhibited”. The “elevated levels of TOP-Flash caused by depletion of TMEM79 or ZNRF3” value ([5]; siRNA depletion) was “abolished; also recorded: suppressed”.
